Literature values as cited in patent US20030134851A1, “Methods and compositions for providing glutamine” (priority 2001, published 2003).

Conditions: rodents; cited from earlier work

SMILES: O=C1CC[C@@H](C(=O)O)N1 [pyroglutamic acid]
- Neurotoxicity: is a neurotoxin in rodents
